Source: PubChem BioAssay AID1259407 (Chemical Carcinogenesis Research Information System (CCRIS), 2018)
The source made the active and inactive calls. No rule for the calls is given here.

Test system: CCRIS mutagenicity, Ames/micronucleus/aberration tests
Experiment: CCRIS mutagenicity studies
[1] = Test System: AMES SALMONELLA TYPHIMURIUM, Strain/Indicator: TA97, Metabolic Activation: HAMSTER, LIVER, S-9, AROCLOR 1254 (10%), Method: PREINCUBATION
[2] = Test System: AMES SALMONELLA TYPHIMURIUM, Strain/Indicator: TA97, Metabolic Activation: NONE, Method: PREINCUBATION
[3] = Test System: AMES SALMONELLA TYPHIMURIUM, Strain/Indicator: TA97, Metabolic Activation: RAT, LIVER, S-9, AROCLOR 1254 (10%), Method: PREINCUBATION
[4] = Test System: AMES SALMONELLA TYPHIMURIUM, Strain/Indicator: TA98, Metabolic Activation: HAMSTER, LIVER, S-9, AROCLOR 1254 (10%), Method: PREINCUBATION
[5] = Test System: AMES SALMONELLA TYPHIMURIUM, Strain/Indicator: TA98, Metabolic Activation: NONE, Method: PREINCUBATION
[6] = Test System: AMES SALMONELLA TYPHIMURIUM, Strain/Indicator: TA98, Metabolic Activation: RAT, LIVER, S-9, AROCLOR 1254 (10%), Method: PREINCUBATION
[7] = Test System: AMES SALMONELLA TYPHIMURIUM, Strain/Indicator: TA100, Metabolic Activation: HAMSTER, LIVER, S-9, AROCLOR 1254 (10%), Method: PREINCUBATION
[8] = Test System: AMES SALMONELLA TYPHIMURIUM, Strain/Indicator: TA100, Metabolic Activation: NONE, Method: PREINCUBATION
[9] = Test System: AMES SALMONELLA TYPHIMURIUM, Strain/Indicator: TA100, Metabolic Activation: RAT, LIVER, S-9, AROCLOR 1254 (10%), Method: PREINCUBATION
[10] = Test System: AMES SALMONELLA TYPHIMURIUM, Strain/Indicator: TA1535, Metabolic Activation: HAMSTER, LIVER, S-9, AROCLOR 1254 (10%), Method: PREINCUBATION
[11] = Test System: AMES SALMONELLA TYPHIMURIUM, Strain/Indicator: TA1535, Metabolic Activation: NONE, Method: PREINCUBATION
[12] = Test System: AMES SALMONELLA TYPHIMURIUM, Strain/Indicator: TA1535, Metabolic Activation: RAT, LIVER, S-9, AROCLOR 1254 (10%), Method: PREINCUBATION

With `Oc1ccc(Nc2ccc3ccccc3c2)cc1` as the compound, how does the mutagenic call [1] read?
Its mutagenic call is “inactive; negative”.

What about the mutagenic call (Test System: AMES SALMONELLA TYPHIMURIUM, Strain/Indicator: TA97, Metabolic Activation: HAMSTER, LIVER, S-9, AROCLOR 1254 (30%), Method: PREINCUBATION) of the same compound?
The mutagenic call was “inactive; negative”.

What about the mutagenic call [2] of the same compound?
Its mutagenic call is “inactive; negative”.

And the mutagenic call [3]?
Its mutagenic call is “inactive; negative”.

And the mutagenic call (Test System: AMES SALMONELLA TYPHIMURIUM, Strain/Indicator: TA97, Metabolic Activation: RAT, LIVER, S-9, AROCLOR 1254 (30%), Method: PREINCUBATION)?
Its mutagenic call is “inactive; negative”.

What about the mutagenic call [4] of the same compound?
The mutagenic call was “inactive; negative”.

And the mutagenic call (Test System: AMES SALMONELLA TYPHIMURIUM, Strain/Indicator: TA98, Metabolic Activation: HAMSTER, LIVER, S-9, AROCLOR 1254 (30%), Method: PREINCUBATION)?
The mutagenic call was “inactive; negative”.

What about the mutagenic call [5] of the same compound?
Its mutagenic call is “inactive; negative”.

What about the mutagenic call [6] of the same compound?
The mutagenic call was “inactive; negative”.

What about the mutagenic call (Test System: AMES SALMONELLA TYPHIMURIUM, Strain/Indicator: TA98, Metabolic Activation: RAT, LIVER, S-9, AROCLOR 1254 (30%), Method: PREINCUBATION) of the same compound?
The mutagenic call was “inactive; negative”.

What about the mutagenic call [7] of the same compound?
Its mutagenic call is “inactive; negative”.

What about the mutagenic call (Test System: AMES SALMONELLA TYPHIMURIUM, Strain/Indicator: TA100, Metabolic Activation: HAMSTER, LIVER, S-9, AROCLOR 1254 (30%), Method: PREINCUBATION) of the same compound?
Its mutagenic call is “inactive; negative”.

And the mutagenic call [8]?
Its mutagenic call is “inactive; negative”.

What about the mutagenic call [9] of the same compound?
Its mutagenic call is “inactive; negative”.

And the mutagenic call (Test System: AMES SALMONELLA TYPHIMURIUM, Strain/Indicator: TA100, Metabolic Activation: RAT, LIVER, S-9, AROCLOR 1254 (30%), Method: PREINCUBATION)?
The mutagenic call was “inactive; negative”.

And the mutagenic call [10]?
The mutagenic call was “inactive; negative”.

And the mutagenic call (Test System: AMES SALMONELLA TYPHIMURIUM, Strain/Indicator: TA1535, Metabolic Activation: HAMSTER, LIVER, S-9, AROCLOR 1254 (30%), Method: PREINCUBATION)?
The mutagenic call was “inactive; negative”.

What about the mutagenic call [11] of the same compound?
Its mutagenic call is “inactive; negative”.

And the mutagenic call [12]?
The mutagenic call was “inactive; negative”.

And the mutagenic call (Test System: AMES SALMONELLA TYPHIMURIUM, Strain/Indicator: TA1535, Metabolic Activation: RAT, LIVER, S-9, AROCLOR 1254 (30%), Method: PREINCUBATION)?
The mutagenic call was “inactive; negative”.

And the mutagenic call (Test System: AMES SALMONELLA TYPHIMURIUM, Strain/Indicator: TA1537, Metabolic Activation: HAMSTER, LIVER, S-9, AROCLOR 1254 (30%), Method: PREINCUBATION)?
Its mutagenic call is “inactive; negative”.

And the mutagenic call (Test System: AMES SALMONELLA TYPHIMURIUM, Strain/Indicator: TA1537, Metabolic Activation: NONE, Method: PREINCUBATION)?
The mutagenic call was “inactive; negative”.

And the mutagenic call (Test System: AMES SALMONELLA TYPHIMURIUM, Strain/Indicator: TA1537, Metabolic Activation: RAT, LIVER, S-9, AROCLOR 1254 (30%), Method: PREINCUBATION)?
The mutagenic call was “inactive; negative”.

Which mutagenic call (End Point: In vitro micronucleus, Test System: Human peripheral blood lymphocytes) does the source give for `CC1(C)[C@H](C(=O)O[C@H](C#N)c2cccc(Oc3ccccc3)c2)[C@@H]1C=C(Cl)Cl` here?
Its mutagenic call is “active; positive. commercial product containing 10% alpha-cypermethrin in xylene emulsi”.

Which mutagenic call (Test System: E. COLI, Strain/Indicator: WP2 UVRA, Metabolic Activation: NONE, Method: PREINCUBATION) does the source give for `CCCCN(N=O)C(=O)N(C)C` here?
The mutagenic call was “active; positive”.

What about the mutagenic call (Test System: E. COLI, Strain/Indicator: WP2 UVRA, Metabolic Activation: RAT, LIVER, S-9, PHENOBARBITAL AND 5,6-BENZOFLAVONE, Method: PREINCUBATION) of the same compound?
The mutagenic call was “active; positive”.

With `CC(O)CBr` (centres undefined) as the compound, how does the mutagenic call [1] read?
Its mutagenic call is “inactive; negative”.

What about the mutagenic call [2] of the same compound?
Its mutagenic call is “inactive; negative”.

And the mutagenic call [3]?
The mutagenic call was “inactive; negative”.

What about the mutagenic call [4] of the same compound?
Its mutagenic call is “inactive; negative”.

And the mutagenic call [6]?
The mutagenic call was “inactive; negative”.

And the mutagenic call [7]?
Its mutagenic call is “inactive; negative”.

What about the mutagenic call [8] of the same compound?
Its mutagenic call is “active; positive”.

What about the mutagenic call [9] of the same compound?
The mutagenic call was “active; positive”.

What about the mutagenic call [10] of the same compound?
The mutagenic call was “active; positive”.

And the mutagenic call [11]?
The mutagenic call was “active; positive”.

And the mutagenic call [12]?
The mutagenic call was “active; positive”.

For `CNc1ccc(O)c2c1C(=O)c1c(O)ccc(NC)c1C2=O`, which mutagenic call (Test System: Ames Salmonella typhimurium, Strain/Indicator: TA98, Metabolic Activation: None, Method: Preincubation) is on record?
The mutagenic call was “active; positive”.

What about the mutagenic call (Test System: Ames Salmonella typhimurium, Strain/Indicator: TA100, Metabolic Activation: None, Method: Preincubation) of the same compound?
Its mutagenic call is “active; positive”.

What about the mutagenic call (Test System: Ames Salmonella typhimurium, Strain/Indicator: TA102, Metabolic Activation: None, Method: Preincubation) of the same compound?
The mutagenic call was “inactive; negative”.

What about the mutagenic call (Test System: Ames Salmonella typhimurium, Strain/Indicator: TA1535, Metabolic Activation: None, Method: Preincubation) of the same compound?
The mutagenic call was “active; positive”.

What does the source list for `CN1CCN=C(c2ccccc2)c2cc(Cl)ccc21`?
mutagenic call (Test System: AMES SALMONELLA TYPHIMURIUM, Strain/Indicator: TA98, Metabolic Activation: NONE, Method: STANDARD PLATE): inactive; negative; mutagenic call (Test System: AMES SALMONELLA TYPHIMURIUM, Strain/Indicator: TA98, Metabolic Activation: RAT, LIVER, S-9, AROCLOR 1254, Method: STANDARD PLATE): inactive; negative; mutagenic call (Test System: AMES SALMONELLA TYPHIMURIUM, Strain/Indicator: TA100, Metabolic Activation: NONE, Method: STANDARD PLATE): inactive; negative; mutagenic call (Test System: AMES SALMONELLA TYPHIMURIUM, Strain/Indicator: TA100, Metabolic Activation: RAT, LIVER, S-9, AROCLOR 1254, Method: STANDARD PLATE): inactive; negative; mutagenic call (Test System: AMES SALMONELLA TYPHIMURIUM, Strain/Indicator: TA1535, Metabolic Activation: NONE, Method: STANDARD PLATE): inactive; negative; mutagenic call (Test System: AMES SALMONELLA TYPHIMURIUM, Strain/Indicator: TA1535, Metabolic Activation: RAT, LIVER, S-9, AROCLOR 1254, Method: STANDARD PLATE): inactive; negative; mutagenic call (Test System: AMES SALMONELLA TYPHIMURIUM, Strain/Indicator: TA1537, Metabolic Activation: NONE, Method: STANDARD PLATE): inactive; negative; mutagenic call (Test System: AMES SALMONELLA TYPHIMURIUM, Strain/Indicator: TA1537, Metabolic Activation: RAT, LIVER, S-9, AROCLOR 1254, Method: STANDARD PLATE): inactive; negative

Which mutagenic call [5] does the source give for `CC1=CC(=O)C=C(C)C1=O` here?
Its mutagenic call is “inactive; negative”.

What about the mutagenic call (Test System: AMES SALMONELLA TYPHIMURIUM, Strain/Indicator: TA98, Metabolic Activation: RAT, LIVER, S-9, PHENOBARBITAL AND 5,6-BENZOFLAVONE, Method: PREINCUBATION) of the same compound?
Its mutagenic call is “inactive; negative”.

What about the mutagenic call [8] of the same compound?
The mutagenic call was “inactive; negative”.

What about the mutagenic call (Test System: AMES SALMONELLA TYPHIMURIUM, Strain/Indicator: TA100, Metabolic Activation: RAT, LIVER, S-9, PHENOBARBITAL AND 5,6-BENZOFLAVONE, Method: PREINCUBATION) of the same compound?
Its mutagenic call is “inactive; negative”.

And the mutagenic call (Test System: AMES SALMONELLA TYPHIMURIUM, Strain/Indicator: TA102, Metabolic Activation: NONE, Method: PREINCUBATION)?
Its mutagenic call is “inactive; negative”.

And the mutagenic call (Test System: AMES SALMONELLA TYPHIMURIUM, Strain/Indicator: TA102, Metabolic Activation: RAT, LIVER, S-9, PHENOBARBITAL AND 5,6-BENZOFLAVONE, Method: PREINCUBATION)?
The mutagenic call was “inactive; negative”.

And the mutagenic call (Test System: AMES SALMONELLA TYPHIMURIUM, Strain/Indicator: TA104, Metabolic Activation: NONE, Method: PREINCUBATION)?
Its mutagenic call is “inactive; negative”.

What about the mutagenic call (Test System: AMES SALMONELLA TYPHIMURIUM, Strain/Indicator: TA104, Metabolic Activation: RAT, LIVER, S-9, PHENOBARBITAL AND 5,6-BENZOFLAVONE, Method: PREINCUBATION) of the same compound?
The mutagenic call was “inactive; negative”.

And the mutagenic call (Test System: AMES SALMONELLA TYPHIMURIUM, Strain/Indicator: TA2637, Metabolic Activation: NONE, Method: PREINCUBATION)?
The mutagenic call was “active; positive”.

And the mutagenic call (Test System: AMES SALMONELLA TYPHIMURIUM, Strain/Indicator: TA2637, Metabolic Activation: RAT, LIVER, S-9, PHENOBARBITAL AND 5,6-BENZOFLAVONE, Method: PREINCUBATION)?
The mutagenic call was “inactive; negative”.
